Measured values taken from patent US8686115B2, “Compositions and methods for quantitatively monitoring lipids” (The Board of Trustees of the University of Illinois, priority 2009, dated 2014).
One block for each molecule: values may come before it.

Columns and labels:
PLCδ PH domain = assay: SPR: inhibition by IP3 of PLCδ PH domain binding to PtdIns(4,5)P2-containing vesicles; conditions: 5 μM IP3; 250 nM PLCδ PH domain; POPC/POPS/PtdIns(4,5)P2 (77:20:3) LUVs; 5 min incubation; pH 7.4
Description: (§1) With respect to FIG. 1, an L1 sensor chip was coated with POPC/POPS/PtdIns(4,5)P2 (77:20:3) LUVs. The proteins were incubated with a given concentration of IP3 for 5 minutes before injecting into the SPR instrument. Kinetic SPR measurements were performed in 20 mM Tris-HCL, pH 7.4, containing 0.16 KCl. […] A lower concentration of DAN-eENTH was used than that of PLCδ PH because the former has much higher affinity that the latter.

[1] = target: T1, DAN-eENTH: epsin 1 ENTH domain variant M10C/C96A/S4W, SEQ ID NO: 2, labeled with DAN at C10 (Homo sapiens, UniProt Q9Y6I3, C96A/M10C/S4W); assay: SPR: effect of IP3 on DAN-eENTH binding to PtdIns(4,5)P2-containing vesicles; conditions: 5 μM IP3; 50 nM DAN-eENTH; POPC/POPS/PtdIns(4,5)P2 (77:20:3) LUVs; 5 min incubation; pH 7.4
T1 construct: The Epsin1 ENTH domain (1-158 amino acids) was subcloned; GST (C, cleaved yes); made in house; host or cells: E. coli BL21 RIL codon plus
T1 sequence (Q9Y6I3 1-158 S4W/M10C/C96A): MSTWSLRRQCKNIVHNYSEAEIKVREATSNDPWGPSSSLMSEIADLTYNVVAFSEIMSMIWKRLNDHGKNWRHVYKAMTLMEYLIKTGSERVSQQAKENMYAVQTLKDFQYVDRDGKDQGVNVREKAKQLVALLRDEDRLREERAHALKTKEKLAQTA
Description: as §1

[2] = test system: PtdIns(4,5)P2 in the plasma membrane; assay: Effect of ionomycin on plasma membrane PtdIns(4,5)P2 in cells microinjected with DAN-eENTH; format: cell-based; conditions: majority of DAN-eENTH released to the cytosol
Description: [DAN-eENTH] was adjusted to give strong enough FB and FG signals for robust data analysis. […] Also, when [PtdIns(4,5)P2] in the plasma membrane was lowered by ionomycin treatment, a majority of DAN-eENTH was released to the cytosol.
NIH 3T3 cells were seeded into 8-well plates and grown at 37° C. in a humidified atmosphere of 95% air and 5% CO2 in Dulbecco's modified Eagle's medium (DMEM) (Invitrogen) supplemented with 10% (v/v) fatal bovine serum (Invitrogen). DAN-eENTH was delivered into the cells by microinjection using the Eppendorf InjectMan NI 2 system. All microscopy measurements and data analysis were performed as described above. For cell measurements, the minimal FB value was taken from the cytosol where PtdIns(4,5)P2 is absent and (FB)max was taken after the excess amount of exogenous PtdIns(4,5)P2 was delivered to the cell by either microinjection or as vesicle formulation. […] Thus, the cellular [PtdIns(4,5)P2] was determined from the observed (FB/FG) values using the in vitro calibration curve determined using POPC/POPS/PtdIns(4,5)P2 GUVs.

[3] = SPR analysis of lipid selectivity of Lact-C2 and mutant; format: binding; conditions: FIG. 12(a), 12(b)
From the text: The Lact-C2 domain was converted into a PA-specific protein through protein engineering based on the crystal structure of Lact-C2 (J. Biol. Chem., (283)7230-7241 (2008)) and our molecular insight into PA and PS binding proteins. In the crystal structure, D80, H83, and Q85 interact with the serine head group of PS, so we mutated them to R, E, and K, respectively, to abrogate PS binding. Since PA has higher negative charge density without the head group, a mutant without PS binding may still interact with PA with high affinity. […] PA formation in NIH 3T3 cells in the presence of the phorbol ester, PMA, was successfully quantified.

inhibition of binding to PtdIns(4,5)P2-containing vesicles (PLCδ PH domain): > 70% | effect on binding to PtdIns(4,5)P2-containing vesicles [1]: minimal effect
Molecule: O=P(O)(O)O[C@@H]1[C@H](O)[C@H](O)[C@@H](OP(=O)(O)O)[C@H](OP(=O)(O)O)[C@H]1O [IP3, inositol-(1,4,5)-triphosphate]

Molecule: C[C@H](CCC(=O)O)C[C@H](C)C[C@H](C)C(=O)/C=C(\O)[C@H](C)C[C@H](C)C/C=C/[C@@H](C)[C@@H](O)[C@@H](C)[C@@H](O)C[C@@H]1CC[C@@](C)([C@H]2CC[C@@](C)([C@@H](C)O)O2)O1 [ionomycin]
[PtdIns(4,5)P2] in the plasma membrane upon ionomycin treatment [2]: lowered

B1: Lact-C2: C2 domain of bovine lactadherin, SEQ ID NO:3 (protein)
chain: CTEPLGLKDNTIPNKQITASSYYKTWGLSAFSWFPYYARLDNQGKFNAWTAQTNSASEWLQIDLGSQKRVTGIITQGARDFGHIQYVAAYRVAYGDDGVTWTEYKDPGASESKIFPGNMDNNSHKKNIFETPFQARFVRIQPVAWHNRITLRVELLGC
modifications: C2 domain of bovine lactadherin.
lipid selectivity by SPR [3]: PS-specific
